Patent US7662854B2, “HIF hydroxylase inhibitors” (ISIS Innovation Limited, priority 2002, dated 2010)

What was measured:
HIF hydroxylases = assay: assays in which the compound replaces 2-oxoglutarate as co-substrate; assay type: biochemical; conditions: compared with 2-oxoglutarate under analogous conditions
Source text: Another aspect of the invention concerns analogues of 2-oxoglutarate that act as improved (relative to 2-oxoglutarate) co-substrates for the HIF hydroxylases. Such a compound is 3-fluoro 2-oxoglutarate.

HIF hydroxylase = assay: capture assay for inhibitors of HIF modification (pVHL capture); assay type: biochemical; conditions: result in words; screening at 2 mM of the potential inhibitor, RCC4 cell extract, 100 μM FeCl2
Description: In vitro screening of potential inhibitors of HIF modification was performed using a capture assay. A Gal/HIF-1α/VP16 fusion protein expressing HIF-1α residues 549-582 was prepared by IVTT (see British Application No. 0118952.1) and used as a substrate in the assay. The unlabelled substrate was immunopurified on beads, washed, and aliquots incubated in the presence of RCC4 cell extract, with 100 μM FeCl2 and 2 mM of the potential inhibitor. The inhibitors were either dissolved in DMSO or Tris as indicated. Controls, where no inhibitor but the equivalent amount of DMSO or Tris was added, were also performed. After washing, the beads were assayed for their ability to interact with 35-S labelled pVHL IVTT. Hydroxylation of the fusion protein by HIF hydroxylase present in the cell extract leads to the ability to capture the labelled pVHL and the amount of labelled protein bound to the fusion protein can then be measured to determine relative HIF hydroxylase activity. FIGS. 1 to 5 show HIF hydroxylase activity in the presence of a particular inhibitor relative to that seen in the absence of the inhibitor (the DMSO/Tris control).

SMILES | level of HIF hydroxylation (HIF hydroxylases) | activity as modulator of HIF prolyl hydroxylase (HIF hydroxylase)
O=C(O)CC(F)C(=O)C(=O)O (centres unmarked) [3-fluoro 2-oxoglutarate, 3-fluoro-2-oxoglutaric acid] | higher level of HIF hydroxylation | 
O=C(O)CC1CC(=O)N(O)C1=O (centres unmarked) [Is52, (1-hydroxy-2,5-dioxo-pyrrolidin-3-yl) acetic acid] |  | highly active
